Data set [1] in a line: Partition coefficient (Kp) of isobutanol between oleyl alcohol extractant and sucrose-supplemented basal fermentation medium. The format is physicochemical. Particulars: oleyl alcohol / BFM, 30° C. How it is done:
The purpose of this Example was to evaluate the effect of sucrose concentrations in the fermentation medium on the partition coefficient (Kp) of isobutanol when oleyl alcohol was used as the extractant. The basal fermentation medium (BFM) typically used in E. coli fermentations was used as the fermentation medium in this Example.
The following experimental procedure was used to generate the data in Table 3. In these Kp measurement experiments, a specified amount of sucrose was added as an osmolyte to the basal fermentation medium. To 30 mL of the sucrose-supplemented BFM, 10 mL of isobutanol rich oleyl alcohol (OA) extractant containing 168 g/L of isobutanol was added and mixed vigorously for 4 and 8 hours at 30° C. with shaking at 250 rpm in a table top shaker (Innova 4230, New Brunswick scientific, Edison, N.J.) to reach equilibrium between the two phases. The aqueous and organic phases in each flask were separated by decantation. The aqueous phase was centrifuged (2 minutes on 13,000 rpm with an Eppendorf centrifuge model 5415R) to remove residual extractant phase and the supernatant analyzed for glucose and isobutanol by HPLC.
Partition coefficients (Kp) for isobutanol distribution between the organic and aqueous phases were calculated from the known amount of isobutanol added to the flask and the isobutanol concentration data measured in the aqueous phase. The concentration of isobutanol in the extractant phase was determined by mass balance. The partition coefficient was determined as the ratio of isobutanol concentration in the organic and the aqueous phase, i.e., Kp=[Isobutanol]Organic phase/[isobutanol]Aqueous phase. Each data point corresponding to a specified level of sucrose as shown in Table 3 was repeated twice and values for Kp reported as the average of the two flasks.

The nature of data set [2]: Kp of isobutanol in an oleyl alcohol/aqueous system (general statement). The settings on record: no added osmolyte. The format is physicochemical. The text has this: Addition of organic extractants like oleyl alcohol into the fermentor during the production stage extracts butanol from the aqueous phase which alleviates its inhibitory effect on the microorganism resulting in higher rate and titer of isobutanol fermentation. Fermentation rate in this two phase system also slows down once the aqueous phase concentration of isobutanol reaches an inhibitory threshold level. In the presence of the extractant (oleyl alcohol) in the fermentor, the aqueous concentration of isobutanol is dictated by the partitioning coefficient (Kp) of isobutanol between the two phases. In the case of an oleyl alcohol/aqueous system, Kp is in the range of 3.5-4.5. A significant increase in isobutanol rate and titer can be achieved if Kp for isobutanol can be increased during fermentation such that the aqueous concentration of isobutanol drops below the inhibitory threshold level.

Data set [3] can be described thus: Activity of the enzyme expressed from the sadB gene in cell-free extracts. The data set is classed as biochemical. Particulars: cell-free extracts of E. coli Mach1/pTrc99a::sadB; isobutyraldehyde as the standard. How it is done:
The sadB coding region was then cloned into the vector pTrc99a (Amann et al., Gene 69: 301-315, 1988). The pCR4Blunt::sadB was digested with EcoRI, releasing the sadB fragment, which was ligated with EcoRI-digested pTrc99a to generate pTrc99a::sadB. This plasmid was transformed into E. coli Mach 1 cells and the resulting transformant was named Mach1/pTrc99a::sadB. The activity of the enzyme expressed from the sadB gene in these cells was determined to be 3.5 mmol/min/mg protein in cell-free extracts when analyzed using isobutyraldehyde as the standard.

Turning to `CC(C)CO` [isobutanol], the Kp in data set [1] (sucrose added 0 moles/L, total sugars 0.17 moles/L) was 4.35; in data set [1] (sucrose added 0.03 moles/L, total sugars 0.20 moles/L), 4.44; in data set [1] (sucrose added 0.09 moles/L, total sugars 0.26 moles/L), 4.41; in data set [1] (sucrose added 0.17 moles/L, total sugars 0.34 moles/L), 4.60; in data set [1] (sucrose added 0.26 moles/L, total sugars 0.43 moles/L), 4.69; in data set [1] (sucrose added 0.33 moles/L, total sugars 0.50 moles/L) it was 5.09. For the same molecule, the Kp came to 5.21 in data set [1] (sucrose added 0.51 moles/L, total sugars 0.68 moles/L); 5.85 in data set [1] (sucrose added 0.67 moles/L, total sugars 0.84 moles/L); 6.85 in data set [1] (sucrose added 1.00 moles/L, total sugars 1.17 moles/L); 7.77 in data set [1] (sucrose added 1.33 moles/L, total sugars 1.50 moles/L); 10.69 in data set [1] (sucrose added 2.00 moles/L, total sugars 2.17 moles/L). Further, in data set [2], the “partitioning coefficient (Kp) of isobutanol between the two phases” value is 3.5-4.5.

B1: sadB: butanol dehydrogenase from Achromobacter xylosoxidans (protein SEQ ID NO: 10), expressed in E. coli Mach 1 cells (protein)
chain: MKALVYHGDHKISLEDKPKPTLQKPTDVVVRVLKTTICGTDLGIYKGKNPEVADGRILGHEGVGVIEEVGESVTQFKKGDKVLISCVTSCGSCDYCKKQLYSHCRDGGWILGYMIDGVQAEYVRIPHADNSLYKIPQTIDDEIAVLLSDILPTGHEIGVQYGNVQPGDAVAIVGAGPVGMSVLLTAQFYSPSTIIVIDMDENRLQLAKELGATHTINSGTENVVEAVHRIAAEGVDVAIEAVGIPATWDICQEIVKPGAHIANVGVHGVKVDFEIQKLWIKNLTITTGLVNTNTTPMLMKVASTDKLPLKKMITHRFELAEIEHAYQVFLNGAKEKAMKIILSNAGAA
modifications: Achromobacter xyloxidans
As for B1, the “activity of the enzyme expressed from the sadB gene” value in data set [3] is reported as 3.5 mmol/min/mg protein.

The values above are taken from patent US20110136193A1, “METHOD FOR PRODUCING BUTANOL USING EXTRACTIVE FERMENTATION WITH OSMOLYTE ADDITION” (BUTAMAX(TM) ADVANCED BIOFUELS LLC, priority 2009, published 2011).
